Test results: patent US4602945A, “Acaricidal ester of tricyclohexyl-tin hydroxide” (Rhone-Poulenc Agrochimie, priority 1983, dated 1986)

Assays:
[1] = system: Plutella xylistella larvae; assay: Insecticidal test, leaf discs of turnip plants; type: in vivo; details: 100 g/hl; 48 hours; 26° C; cyhexatin in the form of a wettable powder
Procedure: Discs of leaf from turnip plants are placed in gelose in Petri dishes. In each dish, 10 Plutella xylistella larvae are placed on each disc and the dish is covered with a ventilated lid. The product to be tested is dissolved in a water/acetone 50/50 mixture and the discs are treated by spraying with this solution by using a Potter tower at a dose equivalent to 675 liters/ha. The discs are kept at 26° C. After 48 hours after the treatment, the live and dead larvae are counted and the mortality percentage is calculated.

[2] = Solubility in organic solvents; type: physicochemical; details: cyclohexanone (546 g), 316 g of 94% pure substance, 50° C., with stirring
Procedure: A reactor is charged, with cyclohexanone (546 g) and 94% pure tricyclohexyl-tin hydroxide (316 g) at 50° C., with stirring. […] Benzoic acid (95 g) is then added and the temperature is kept at 50° C.

[3] = background statement; cited from earlier work

Compound | mortality percentage [1] | dissolution in cyclohexanone [2] | solubility in most of the usual solvents in agrochemistry [3]
tricyclohexyl-tin benzoate | at least 95% | – | –
[OH][Sn]([CH]1CCCCC1)([CH]1CCCCC1)[CH]1CCCCC1 [cyhexatin, Tricyclohexyl-tin hydroxide] | < 10% | does not dissolve | insolubility
